Measured values published in patent US11780823B2, “Indazole-3-carboxamides and their use as Wnt/β-catenin signaling pathway inhibitors” (BioSplice Therapeutics, Inc., priority 2011, dated 2023).

Test system: Wnt activity (wnt-responsive SP5 promoter luciferase reporter in SW480 cells)
Assay: Wnt reporter screening assay: SP5 promoter-driven firefly luciferase in SW480 cells
Assay type: cell-based
Details: Homo sapiens; SW480 colon cancer cells with SP5 promoter luciferase reporter; half-log dilutions, ten micromolar top concentration; read 24-40 h after compound addition; normalized to DMSO; read-out: Wnt inhibition
Excerpt: Another screening assay for Wnt activity is described as follows. Reporter cell lines can be generated by stably transducing cells of cancer cell lines (e.g., colon cancer) with a lentiviral construct that include a wnt-responsive promoter driving expression of the firefly luciferase gene.
Lentiviral constructs can be made in which the SP5 promoter, a promoter having eight TCF/LEF binding sites derived from the SP5 promoter, is linked upstream of the firefly luciferase gene. The lentiviral constructs can also include a hygromycin resistance gene as a selectable marker. The SP5 promoter construct can be used to transduce SW480 cells, a colon cancer cell line having a mutated APC gene that generates a truncated APC protein, leading to de-regulated accumulation of β-catenin.
Cultured SW480 cells bearing a reporter construct can be distributed at approximately 10,000 cells per well into 96 well or 384 well plates. Compounds from a small molecule compound library can then be added to the wells in half-log dilutions using a ten micromolar top concentration. A series of control wells for each cell type receive only buffer and compound solvent. Twenty-four to forty hours after the addition of compound, reporter activity for luciferase can be assayed, for example, by addition of the BrightGlo luminescence reagent (Promega) and the Victor3 plate reader (Perkin Elmer). Readings can be normalized to DMSO only treated cells, and normalized activities can then be used in the IC50 calculations.

Compound | IC50
CN(C)C(=O)Nc1cncc(-c2ccc3[nH]nc(C(=O)Nc4cccnc4)c3c2)c1 [Compound 1, 5-(5-(3,3-dimethylureido)pyridin-3-yl)-N-(pyridin-3-yl)-1H-indazole-3-carboxamide] | 175 nM
O=C(Nc1ccc(C(F)(F)F)nc1)c1n[nH]c2ccc(-c3cncc(F)c3)cc12 [Compound 2, 5-(5-fluoropyridin-3-yl)-N-(6-(trifluoromethyl)pyridin-3-yl)-1H-indazole-3-carboxamide] | 5000 nM
O=C(Nc1ccc(C(F)(F)F)nc1)c1n[nH]c2ccc(-c3cccnc3)cc12 [Compound 3, 5-(Pyridin-3-yl)-N-(6-(trifluoromethyl)pyridin-3-yl)-1H-indazole-3-carboxamide] | 200 nM
O=C(Nc1cccnc1)c1n[nH]c2ccc(-c3cccnc3)cc12 [Compound 4, N,5-di(pyridin-3-yl)-1H-indazole-3-carboxamide] | 160 nM
O=C(Nc1cccc(-c2cccc(F)c2)c1)c1n[nH]c2ccc(-c3cccnc3)cc12 [Compound 5, N-(3′-Fluorobiphenyl-3-yl)-5-(pyridin-3-yl)-1H-indazole-3-carboxamide] | ≥ 10000 nM
O=C(Nc1ccncc1)c1n[nH]c2ccc(-c3cccnc3)cc12 [Compound 6, 5-(Pyridin-3-yl)-N-(pyridin-4-yl)-1H-indazole-3-carboxamide] | 270 nM
CN(C)Cc1cncc(NC(=O)c2n[nH]c3ccc(-c4cccnc4)cc23)c1 [Compound 7, N-(5-((Dimethylamino)methyl)pyridin-3-yl)-5-(pyridin-3-yl)-1H-indazole-3-carboxamide] | 110 nM
O=C(Nc1ccc(CN2CCCC2)nc1)c1n[nH]c2ccc(-c3cccnc3)cc12 [Compound 8, 5-(Pyridin-3-yl)-N-(6-(pyrrolidin-1-ylmethyl)pyridin-3-yl)-1H-indazole-3-carboxamide] | 130 nM
O=C(Nc1cncc(-c2cccc(F)c2)c1)c1n[nH]c2ccc(-c3cccnc3)cc12 [Compound 9, N-(5-(3-Fluorophenyl)pyridin-3-yl)-5-(pyridin-3-yl)-1H-indazole-3-carboxamide] | ≥ 10000 nM
CN1CCN(c2ncccc2NC(=O)c2n[nH]c3ccc(-c4cccnc4)cc23)CC1 [Compound 11, N-(2-(4-Methylpiperazin-1-yl)pyridin-3-yl)-5-(pyridin-3-yl)-1H-indazole-3-carboxamide] | ≥ 10000 nM
CN1CCN(c2ccc(NC(=O)c3n[nH]c4ccc(-c5cccnc5)cc34)cn2)CC1 [Compound 12, N-(6-(4-Methylpiperazin-1-yl)pyridin-3-yl)-5-(pyridin-3-yl)-1H-indazole-3-carboxamide] | 63 nM
O=C(Nc1cccnc1)c1n[nH]c2ccc(-c3cncc(F)c3)cc12 [Compound 13, 5-(5-fluoropyridin-3-yl)-N-(pyridin-3-yl)-1H-indazole-3-carboxamide] | 1250 nM
O=C(Nc1ccnnc1)c1n[nH]c2ccc(-c3cccnc3)cc12 [Compound 14, N-(Pyridazin-4-yl)-5-(pyridin-3-yl)-1H-indazole-3-carboxamide] | 106 nM
CN1CCN(Cc2ccc(NC(=O)c3n[nH]c4ccc(-c5cccnc5)cc34)cn2)CC1 [Compound 15, N-(6-((4-Methylpiperazin-1-yl)methyl)pyridin-3-yl)-5-(pyridin-3-yl)-1H-indazole-3-carboxamide] | 37 nM
O=C(Nc1cccnc1)c1n[nH]c2ccc(-c3cncc(C(F)(F)F)c3)cc12 [Compound 16, N-(pyridin-3-yl)-5-(5-(trifluoromethyl)pyridin-3-yl)-1H-indazole-3-carboxamide] | ≥ 10000 nM
O=C(Nc1ccc(Oc2ccccc2F)nc1)c1n[nH]c2ccc(-c3cccnc3)cc12 [Compound 18, N-(6-(2-fluorophenoxy)pyridin-3-yl)-5-(pyridin-3-yl)-1H-indazole-3-carboxamide] | 122 nM
O=C(Nc1ccc(Oc2cccc(F)c2)nc1)c1n[nH]c2ccc(-c3cccnc3)cc12 [Compound 19, N-(6-(3-Fluorophenoxy)pyridin-3-yl)-5-(pyridin-3-yl)-1H-indazole-3-carboxamide] | 107 nM
O=C(Nc1ccc(Oc2ccc(F)cc2)nc1)c1n[nH]c2ccc(-c3cccnc3)cc12 [Compound 20, N-(6-(4-Fluorophenoxy)pyridin-3-yl)-5-(pyridin-3-yl)-1H-indazole-3-carboxamide] | 118 nM
O=C(Nc1cncc(F)c1)c1n[nH]c2ccc(-c3cccnc3)cc12 [Compound 23, N-(5-Fluoropyridin-3-yl)-5-(pyridin-3-yl)-1H-indazole-3-carboxamide] | 120 nM
CN(C)Cc1cncc(-c2ccc3[nH]nc(C(=O)Nc4ccc(C(F)(F)F)nc4)c3c2)c1 [Compound 26, 5-(5-((Dimethylamino)methyl)pyridin-3-yl)-N-(6-(trifluoromethyl)pyridin-3-yl)-1H-indazole-3-carboxamide] | 210 nM
O=C(Nc1cccnc1)c1n[nH]c2ccc(-c3cncc(NC(=O)N4CCOCC4)c3)cc12 [Compound 32, N-(5-(3-(Pyridin-3-ylcarbamoyl)-1H-indazol-5-yl)pyridin-3-yl) morpholine-4-carboxamide] | 1250 nM
CN(C)Cc1cncc(-c2ccc3[nH]nc(C(=O)Nc4ccc(Oc5ccccc5F)nc4)c3c2)c1 [Compound 36, 5-(5-((Dimethylamino)methyl)pyridin-3-yl)-N-(6-(2-fluorophenoxy)pyridin-3-yl)-1H-indazole-3-carboxamide] | 275 nM
Cn1nc(NC(=O)c2n[nH]c3ccc(-c4cccnc4)cc23)cc1C(F)(F)F [Compound 37, N-(1-Methyl-5-(trifluoromethyl)-1H-pyrazol-3-yl)-5-(pyridin-3-yl)-1H-indazole-3-carboxamide] | 1120 nM
CN1CCN(c2ccc(NC(=O)c3n[nH]c4ccc(-c5cncc(NC(=O)C6CC6)c5)cc34)cn2)CC1 [Compound 38, 5-(5-(Cyclopropanecarboxamido)pyridin-3-yl)-N-(6-(4-methylpiperazin-1-yl)pyridin-3-yl)-1H-indazole-3-carboxamide] | 120 nM
O=C(Nc1ccc(C(F)(F)F)nc1)c1n[nH]c2ccc(-c3cncc(NC(=O)C4CC4)c3)cc12 [Compound 39, 5-(5-(Cyclopropanecarboxamido)pyridin-3-yl)-N-(6-(trifluoromethyl)pyridin-3-yl)-1H-indazole-3-carboxamide] | 65 nM
CN(C)Cc1cncc(-c2ccc3[nH]nc(C(=O)Nc4cccnc4)c3c2)c1 [Compound 40, 5-(5-((Dimethylamino)methyl)pyridin-3-yl)-N-(pyridin-3-yl)-1H-indazole-3-carboxamide] | 65 nM
O=C(Nc1cccnc1)c1n[nH]c2ccc(-c3cncc(NC(=O)C4CC4)c3)cc12 [Compound 41, 5-(5-(Cyclopropanecarboxamido)pyridin-3-yl)-N-(pyridin-3-yl)-1H-indazole-3-carboxamide] | 67 nM
O=C(NCc1cccnc1)c1n[nH]c2ccc(-c3cccnc3)cc12 [Compound 42, 5-(Pyridin-3-yl)-N-(pyridin-3-ylmethyl)-1H-indazole-3-carboxamide] | 500 nM
O=C(Nc1cccnc1)c1n[nH]c2ccc(-c3cncc(CN4CCCC4)c3)cc12 [Compound 43, N-(Pyridin-3-yl)-5-(5-(pyrrolidin-1-ylmethyl)pyridin-3-yl)-1H-indazole-3-carboxamide] | 63 nM
